In patent US10265298B2, “Method of increasing the bioavailability of silybin” (Macau University of Science and Technology, priority 2017, dated 2019):

Assays:
[1] = tested on: Caco-2 cell monolayers; experiment: Bidirectional transport across Caco-2 cell monolayers; conditions: for lowest effective dosage for inhibiting efflux transport of silybin: silybin 10 μM; for PA-B: human, Caco-2, 180 min; for mean efflux ratio (PB-A/PA-B): silybin alone, no inhibitor
Method: Human colorectal adenocarcinoma-2 (Caco-2) cells was obtained from American Type Culture Collection (Manassas, Va.) and frozen at −80° C. For transport study, cells were cultured at 37° C./5% CO2 in Dulbecco's modified Eagle's medium supplemented with 10% fetal bovine serum, 1% nonessential amino acids, and 1% penicillin-streptomycin. […] The culture medium was changed 24 hours after seeding to remove cell debris and dead cells; after which the medium was changed on alternate days. Monolayers were used for transport assays between 21 and 23 days for Caco-2 cells. Prior to transport study, cell monolayers were certified based on internal criteria on transepithelial electrical resistance (TEER) values.
Prior to transport study, cell monolayers were certified based on our internal criteria on transepithelial electrical resistance (TEER) values, and only monolayers that met the acceptance criteria (transepithelial electrical resistance >500 Ω·cm^2 for Caco-2 cells and >200 Ω·cm^2 for MDCK cells) were selected for transport studies.
Bidirectional transport assays in human colorectal adenocarcinoma 2 (Caco-2) and Madin-Darby canine kidney II (MDCK II) was carried out by dosing substrates in assay buffer to either the apical chamber (A-to-B) or the basolateral chamber (B-to-A); cells were then incubated at 37° C. with shaking at 50 rotations per minute (rpm), and 100 μl samples were collected at 30, 60, 90, 120 and 180 minutes from the basolateral chamber to study the drug transport of AP to BL, or apical chamber to study the drug transport of BL to AP. Cell monolayers were then washed twice with ice-cold assay buffer and lysed with methanol on ice for 10 minutes. For inhibition studies, Caco-2 or MDCK II cell monolayers were pre-incubated with an inhibitor in both apical and basolateral chambers for 30 minutes, and bidirectional transport of 10 μM silybin was conducted in the absence (control) or presence of the inhibitor in both chambers. […] For fluorescence intensity detection, samples collected from AP or BL side were immediately detected in 96 well black plate by Microplate ultraviolet-visible spectroscopy (UV/VIS) spectrophotometer (TECAN infinite M200 PRO, Männedorf, Switzerland). In all cases, each determination was performed in triplicate.
The apparent permeability coefficients (Papp) were calculated as Papp=dQ/dt×1/(C“0”A) where dQ/dt (mM/sec) is the rate of permeation of the drug across the cells, C0 (millimolar (mM)) is the donor compartment concentration at time zero and A (cm^2) is the area of the cell monolayer. C0 is obtained from analysis of the dosing solution at the start experiment. Efflux Ratio (ER)=Papp (B to A)/Papp (A to B), while Papp (B−A) is the Papp value measured in the B to A direction, and Papp (A−B) is the Papp value measured in the A to B direction. 1.5 Preparation of Rat Sandwich-Cultured Hepatocytes

[2] = tested on: rat sandwich-cultured hepatocytes; experiment: in vitro; type: in vitro ADME
Method: Sandwich-cultured rat hepatocytes (SCHs) were established according to previously described methods with minor modifications. Primary rat hepatocytes were isolated from male Sprague Dawley® (SD) rats (220-270 g) using a collagenase perfusion as described previously and plated at a density of 7.4×10^5 cells/2 ml/well onto six-well BioCoat plates. Approximately 24 hours later, hepatocytes were overlaid with 2 ml of 0.25 mg/ml BD Matrigel basement membrane matrix in Dulbecco's modified Eagle medium (DMEM) containing 1% volume by volume percentage (v/v) insulin/transferrin/selenium culture supplement, […] dexamethasone, 2 mM L-glutamine, 1% (v/v) minimum essential medium nonessential amino acids, 1% penicillin-streptomycin. Hepatocytes were cultured for 4 days to allow extensive formation of canalicular networks between cells before experimentation and the medium was changed daily.
Sandwich-cultured hepatocytes (SCHs) were pre-incubated in 2 milliliters (ml) of warm Hank's Balanced Salt Solution (HBSS) with or without Ca^2+ at 37° C. for 15 minutes; the tight junctions of the bile canaliculi open temporally after exposure to HBSS without Ca^2+. Subsequently, cells were incubated at 37° C. for 20 minutes with 1.5 ml of standard HBSS containing silybin (10 μM), or MK 571 (50 μM) as a positive control, or baicalein (25, 15.8, 5, 1.58, 0.5, 0.16 μM), or tangeretin (25, 15.8, 5, 1.58, 0.5 μM). After 20 min, cells were washed three times with ice-cold standard HBSS. The cell samples were lysed by sonication in 1 ml of water for 5 seconds with the ultrasonic cell disruption system (SONICS & […], INC., Newtown, Conn., USA). Conjugated silybin and unconjugated (free) silybin were quantified by high-performance liquid chromatography-tandem mass spectrometry (HPLC-MS/MS). Transport function was normalized to the protein content of the hepatocytes which was evaluated by bicinchoninic acid (BCA) protein assay (Pierce Chemical, Rockford, Ill.). The biliary excretion index (BEI; %) and in vitro biliary clearance (Clbiliary; ml/min/kg) were calculated by using B-CLEAR technology (Qualyst, Inc., Research Triangle Park, N.C.) based on the following equations: […]

[3] = target: MRP2 (Homo sapiens, UniProt Q92887); type: in vitro ADME; design: host or cells: MDCKII (Madin-Darby canine kidney II); conditions: for mean net efflux ratio: Caco-2
Method: (§1) In all cases, each determination was performed in triplicate.
(§2) 1.5 Preparation of Rat Sandwich-Cultured Hepatocytes

[4] = tested on: MDCKII-WT cells; type: in vitro ADME, canine; conditions: for mean net efflux ratio: MDCK
Method: as §1, §2

MRP2, sequence (Q92887 whole entry): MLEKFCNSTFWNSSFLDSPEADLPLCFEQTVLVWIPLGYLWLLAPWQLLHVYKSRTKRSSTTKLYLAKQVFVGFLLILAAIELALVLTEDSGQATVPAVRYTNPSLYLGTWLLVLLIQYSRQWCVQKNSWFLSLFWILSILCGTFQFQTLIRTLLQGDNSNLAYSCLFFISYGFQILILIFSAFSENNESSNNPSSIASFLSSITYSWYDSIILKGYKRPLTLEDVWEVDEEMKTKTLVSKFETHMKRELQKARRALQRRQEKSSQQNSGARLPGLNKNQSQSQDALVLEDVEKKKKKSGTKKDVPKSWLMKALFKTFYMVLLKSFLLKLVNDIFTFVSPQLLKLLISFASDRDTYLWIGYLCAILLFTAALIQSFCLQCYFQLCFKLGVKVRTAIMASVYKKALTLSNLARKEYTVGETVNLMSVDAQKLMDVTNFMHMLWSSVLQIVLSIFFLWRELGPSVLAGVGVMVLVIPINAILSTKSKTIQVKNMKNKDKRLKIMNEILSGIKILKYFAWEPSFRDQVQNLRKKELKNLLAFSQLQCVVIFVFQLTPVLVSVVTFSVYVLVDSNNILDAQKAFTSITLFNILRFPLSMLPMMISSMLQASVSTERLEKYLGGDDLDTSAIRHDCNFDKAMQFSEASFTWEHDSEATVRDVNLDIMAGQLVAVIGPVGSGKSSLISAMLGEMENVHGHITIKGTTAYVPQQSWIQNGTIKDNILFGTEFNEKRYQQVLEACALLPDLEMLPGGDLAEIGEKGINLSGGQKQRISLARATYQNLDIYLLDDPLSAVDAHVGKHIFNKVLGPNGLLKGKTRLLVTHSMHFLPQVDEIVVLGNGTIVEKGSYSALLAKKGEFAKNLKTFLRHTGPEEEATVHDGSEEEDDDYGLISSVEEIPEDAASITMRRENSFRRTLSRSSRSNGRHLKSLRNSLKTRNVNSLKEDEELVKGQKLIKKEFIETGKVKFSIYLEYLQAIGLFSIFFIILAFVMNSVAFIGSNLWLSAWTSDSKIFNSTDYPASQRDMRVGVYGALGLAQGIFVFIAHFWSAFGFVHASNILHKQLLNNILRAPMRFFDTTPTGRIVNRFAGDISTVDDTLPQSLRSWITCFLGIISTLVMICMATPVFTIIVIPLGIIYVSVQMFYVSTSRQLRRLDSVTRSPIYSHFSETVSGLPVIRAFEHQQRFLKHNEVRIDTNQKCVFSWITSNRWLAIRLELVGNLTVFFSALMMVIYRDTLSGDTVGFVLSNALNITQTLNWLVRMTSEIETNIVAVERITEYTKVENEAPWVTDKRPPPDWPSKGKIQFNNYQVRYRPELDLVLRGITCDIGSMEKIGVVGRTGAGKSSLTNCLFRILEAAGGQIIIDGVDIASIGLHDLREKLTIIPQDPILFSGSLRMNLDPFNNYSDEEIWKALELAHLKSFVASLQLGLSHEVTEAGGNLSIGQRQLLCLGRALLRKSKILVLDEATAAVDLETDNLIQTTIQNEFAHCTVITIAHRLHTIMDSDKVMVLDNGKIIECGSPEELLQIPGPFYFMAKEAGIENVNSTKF

| SMILES | lowest effective dosage for inhibiting efflux transport of silybin [1] [µM] | PA-B [1] | mean efflux ratio (PB-A/PA-B) [1] | mean net efflux ratio [3] | mean BEI (biliary excretion index), free silybin [2] [%] | intrinsic biliary clearance ([2]; rat, hepatocytes) | mean net efflux ratio [4] | other results |
| --- | --- | --- | --- | --- | --- | --- | --- | --- |
| O=c1cc(-c2ccccc2)oc2cc(O)c(O)c(O)c12 [baicalein] | 0.5 |  |  |  |  |  |  | effect on efflux of silybin ([1]; 5 μM baicalein, silybin at 40 μM): did not affect the efflux of silybin; effect on efflux of silybin ([1]; 5 μM baicalein, silybin concentration below 30 μM): significantly inhibited the efflux of silybin; reduction of biliary excretion of silybin ([2]; baicalein at 25 μM, silybin 10 μM): ~75% |
| COc1cc([C@H]2Oc3cc([C@H]4Oc5cc(O)cc(O)c5C(=O)[C@@H]4O)ccc3O[C@@H]2CO)ccc1O [silybin A] |  | 0.47±0.03×10^−6 cm/s | 5.05 | 3.06 | 35±4 | 2.1±0.2 μl/(min·mg protein) | 1.01 |  |
| COc1cc([C@@H]2Oc3cc([C@H]4Oc5cc(O)cc(O)c5C(=O)[C@@H]4O)ccc3O[C@H]2CO)ccc1O [silybin B] |  | 0.45±0.02×10^−6 cm/s | 4.61 | 3.30 | 33±1 | 2.5±0.4 μl/(min·mg protein) | 0.99 |  |
| COc1cc(C2Oc3cc([C@H]4Oc5cc(O)cc(O)c5C(=O)[C@@H]4O)ccc3OC2CO)ccc1O (stereo partly drawn) [silybin] |  |  |  |  |  |  |  | MRP2 substrate status ([3]; dog, 180 min, 10 µM): is a MRP2 substrate; permeability of silybin in absence or presence of P-gp, MRP and BCRP efflux inhibitors ([4]; Caco-2): no significant difference |
| COc1ccc(-c2cc(=O)c3c(OC)c(OC)c(OC)c(OC)c3o2)cc1 [tangeretin] | 0.05 |  |  |  |  |  |  | effect on efflux of silybin ([1]; 0.5 μM tangeretin, silybin 2.5 to 40 μM): Significant inhibitory effects; effect on biliary clearance of silybin ([2]; rat, hepatocytes): inhibited the biliary clearance of silybin |
